IC50 data for 25 molecules are collected here from ChEMBL document CHEMBL4340553 (Bioorg Med Chem, 2019).

Molecules are shown by their SMILES. Some results are limits rather than exact numbers.

The test system of one experiment is MKN-45. As to the kind of experiment: Cytotoxicity in human MKN45 cells assessed as reduction in cell viability incubated for 72 hrs by MTT assay. To be noted: MKN-45, 72 h.
In another experiment the test system is HT-29. Briefly: Cytotoxicity in human HT-29 cells assessed as reduction in cell viability incubated for 72 hrs by MTT assay. To be noted: HT-29, 72 h.
The test system of another experiment is NCI-H460. Briefly: Cytotoxicity in human NCI-H460 cells assessed as reduction in cell viability incubated for 72 hrs by MTT assay. To be noted: NCI-H460, 72 h.
The next experiment concerns MDA-MB-231. Briefly: Cytotoxicity in human MDA-MB-231 cells assessed as reduction in cell viability incubated for 72 hrs by MTT assay. To be noted: MDA-MB-231, 72 h.
The target in experiment [1] is Vascular endothelial growth factor receptor 1 (Homo sapiens, UniProt P17948). Briefly: Inhibition of FLT1 (unknown origin) using poly (Glu, Tyr) 4:1 substrate incubated for 30 mins by HTRF assay.
Experiment [2] addresses Mast/stem cell growth factor receptor Kit (Homo sapiens, UniProt P10721). Briefly: Inhibition of c-Kit (unknown origin) using poly (Glu, Tyr) 4:1 substrate incubated for 30 mins by HTRF assay.
For experiment [3], the target named is ALK tyrosine kinase receptor (Homo sapiens, UniProt Q9UM73). As to the kind of experiment: Inhibition of ALK (unknown origin) using poly (Glu, Tyr) 4:1 substrate incubated for 30 mins by HTRF assay.
In experiment [4] the target is T1, Receptor-type tyrosine-protein kinase FLT3 (Homo sapiens, UniProt P36888).
T1 sequence (P36888 whole entry): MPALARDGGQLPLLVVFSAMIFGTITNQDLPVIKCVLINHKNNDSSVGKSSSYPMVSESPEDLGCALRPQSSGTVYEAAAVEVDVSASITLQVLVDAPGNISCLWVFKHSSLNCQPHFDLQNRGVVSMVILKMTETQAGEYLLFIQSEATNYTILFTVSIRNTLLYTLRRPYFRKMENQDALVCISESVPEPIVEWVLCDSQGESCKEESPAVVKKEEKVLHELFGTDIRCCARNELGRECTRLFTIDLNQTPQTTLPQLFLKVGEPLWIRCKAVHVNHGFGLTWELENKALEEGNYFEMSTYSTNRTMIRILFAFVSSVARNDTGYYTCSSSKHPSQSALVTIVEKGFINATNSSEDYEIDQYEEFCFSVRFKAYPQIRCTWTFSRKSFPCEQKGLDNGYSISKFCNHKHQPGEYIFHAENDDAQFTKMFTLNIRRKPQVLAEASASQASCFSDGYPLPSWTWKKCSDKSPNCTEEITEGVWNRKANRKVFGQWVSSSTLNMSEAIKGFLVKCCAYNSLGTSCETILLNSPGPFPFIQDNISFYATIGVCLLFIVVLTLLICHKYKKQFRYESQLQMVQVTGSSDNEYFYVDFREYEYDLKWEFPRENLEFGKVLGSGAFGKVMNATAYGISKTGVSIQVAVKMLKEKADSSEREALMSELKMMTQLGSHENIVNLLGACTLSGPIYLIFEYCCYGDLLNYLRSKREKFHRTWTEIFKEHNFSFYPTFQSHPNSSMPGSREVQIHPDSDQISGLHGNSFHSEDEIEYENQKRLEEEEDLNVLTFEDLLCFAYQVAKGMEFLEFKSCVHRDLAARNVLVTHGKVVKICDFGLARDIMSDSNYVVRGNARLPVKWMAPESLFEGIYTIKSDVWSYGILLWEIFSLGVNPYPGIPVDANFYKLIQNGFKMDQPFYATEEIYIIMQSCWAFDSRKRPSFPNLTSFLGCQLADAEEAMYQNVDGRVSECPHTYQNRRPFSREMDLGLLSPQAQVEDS
Briefly: Inhibition of FLT3 (unknown origin) using poly (Glu, Tyr) 4:1 substrate incubated for 30 mins by HTRF assay.

For experiment [5], the target named is Platelet-derived growth factor receptor alpha (Homo sapiens, UniProt P16234). Briefly: Inhibition of PDGFRalpha (unknown origin) using poly (Glu, Tyr) 4:1 substrate incubated for 30 mins by HTRF assay.
In experiment [6] the target is Hepatocyte growth factor receptor (Homo sapiens, UniProt P08581). Briefly: Inhibition of c-Met (unknown origin) using poly (Glu, Tyr) 4:1 substrate incubated for 30 mins by HTRF assay.
Experiment [7] addresses Vascular endothelial growth factor receptor 2 (Homo sapiens, UniProt P35968). As to the kind of experiment: Inhibition of KDR (unknown origin) using poly (Glu, Tyr) 4:1 substrate incubated for 30 mins by HTRF assay.
Experiment [8] concerns the target Platelet-derived growth factor receptor beta (Homo sapiens, UniProt P09619). As to the kind of experiment: Inhibition of PDGFRbeta (unknown origin) using poly (Glu, Tyr) 4:1 substrate incubated for 30 mins by HTRF assay.
Experiment [9] is described as follows: Inhibition of VEGFR (unknown origin) using poly (Glu, Tyr) 4:1 substrate incubated for 30 mins by HTRF assay. Also on record: species or system Homo sapiens.
Experiment [10] deals with Macrophage-stimulating protein receptor (Homo sapiens, UniProt Q04912). Briefly: Inhibition of RON (unknown origin) using poly (Glu, Tyr) 4:1 substrate incubated for 30 mins by HTRF assay.
Experiment [11] has as its target Epidermal growth factor receptor (Homo sapiens, UniProt P00533). As to the kind of experiment: Inhibition of EGFR (unknown origin) using poly (Glu, Tyr) 4:1 substrate incubated for 30 mins by HTRF assay.

Chain of Epidermal growth factor receptor (P00533 whole entry): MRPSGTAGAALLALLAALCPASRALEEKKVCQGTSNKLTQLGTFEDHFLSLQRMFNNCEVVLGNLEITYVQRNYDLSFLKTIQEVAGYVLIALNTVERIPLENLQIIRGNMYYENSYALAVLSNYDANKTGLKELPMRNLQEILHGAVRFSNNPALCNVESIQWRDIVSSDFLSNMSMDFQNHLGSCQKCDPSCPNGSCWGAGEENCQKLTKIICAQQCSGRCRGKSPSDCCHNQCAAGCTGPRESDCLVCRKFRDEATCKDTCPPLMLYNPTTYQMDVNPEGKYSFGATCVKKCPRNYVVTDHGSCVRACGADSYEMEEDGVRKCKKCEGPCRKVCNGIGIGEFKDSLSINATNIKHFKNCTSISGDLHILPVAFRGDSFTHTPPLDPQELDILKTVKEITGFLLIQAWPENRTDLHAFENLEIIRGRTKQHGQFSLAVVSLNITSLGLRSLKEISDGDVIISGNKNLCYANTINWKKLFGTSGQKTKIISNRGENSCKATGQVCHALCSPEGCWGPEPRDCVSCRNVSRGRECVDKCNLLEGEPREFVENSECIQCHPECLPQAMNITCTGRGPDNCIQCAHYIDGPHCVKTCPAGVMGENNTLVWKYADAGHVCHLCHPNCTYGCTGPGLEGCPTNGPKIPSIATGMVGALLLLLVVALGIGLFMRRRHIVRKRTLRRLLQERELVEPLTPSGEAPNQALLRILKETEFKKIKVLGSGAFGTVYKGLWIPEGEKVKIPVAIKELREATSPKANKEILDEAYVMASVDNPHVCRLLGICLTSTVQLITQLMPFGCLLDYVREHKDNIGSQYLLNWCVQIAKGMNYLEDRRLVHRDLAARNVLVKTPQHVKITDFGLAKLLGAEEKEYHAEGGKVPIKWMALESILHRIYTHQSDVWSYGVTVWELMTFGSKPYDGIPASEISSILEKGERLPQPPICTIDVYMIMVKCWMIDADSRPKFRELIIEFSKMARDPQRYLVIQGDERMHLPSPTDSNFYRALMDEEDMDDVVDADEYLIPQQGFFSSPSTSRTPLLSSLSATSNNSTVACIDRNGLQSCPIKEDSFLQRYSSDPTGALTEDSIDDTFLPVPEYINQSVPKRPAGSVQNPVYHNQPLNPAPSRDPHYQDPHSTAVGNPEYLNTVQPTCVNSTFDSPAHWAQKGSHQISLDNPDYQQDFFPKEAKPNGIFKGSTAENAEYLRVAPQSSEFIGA
Chain of Vascular endothelial growth factor receptor 1 (P17948 whole entry): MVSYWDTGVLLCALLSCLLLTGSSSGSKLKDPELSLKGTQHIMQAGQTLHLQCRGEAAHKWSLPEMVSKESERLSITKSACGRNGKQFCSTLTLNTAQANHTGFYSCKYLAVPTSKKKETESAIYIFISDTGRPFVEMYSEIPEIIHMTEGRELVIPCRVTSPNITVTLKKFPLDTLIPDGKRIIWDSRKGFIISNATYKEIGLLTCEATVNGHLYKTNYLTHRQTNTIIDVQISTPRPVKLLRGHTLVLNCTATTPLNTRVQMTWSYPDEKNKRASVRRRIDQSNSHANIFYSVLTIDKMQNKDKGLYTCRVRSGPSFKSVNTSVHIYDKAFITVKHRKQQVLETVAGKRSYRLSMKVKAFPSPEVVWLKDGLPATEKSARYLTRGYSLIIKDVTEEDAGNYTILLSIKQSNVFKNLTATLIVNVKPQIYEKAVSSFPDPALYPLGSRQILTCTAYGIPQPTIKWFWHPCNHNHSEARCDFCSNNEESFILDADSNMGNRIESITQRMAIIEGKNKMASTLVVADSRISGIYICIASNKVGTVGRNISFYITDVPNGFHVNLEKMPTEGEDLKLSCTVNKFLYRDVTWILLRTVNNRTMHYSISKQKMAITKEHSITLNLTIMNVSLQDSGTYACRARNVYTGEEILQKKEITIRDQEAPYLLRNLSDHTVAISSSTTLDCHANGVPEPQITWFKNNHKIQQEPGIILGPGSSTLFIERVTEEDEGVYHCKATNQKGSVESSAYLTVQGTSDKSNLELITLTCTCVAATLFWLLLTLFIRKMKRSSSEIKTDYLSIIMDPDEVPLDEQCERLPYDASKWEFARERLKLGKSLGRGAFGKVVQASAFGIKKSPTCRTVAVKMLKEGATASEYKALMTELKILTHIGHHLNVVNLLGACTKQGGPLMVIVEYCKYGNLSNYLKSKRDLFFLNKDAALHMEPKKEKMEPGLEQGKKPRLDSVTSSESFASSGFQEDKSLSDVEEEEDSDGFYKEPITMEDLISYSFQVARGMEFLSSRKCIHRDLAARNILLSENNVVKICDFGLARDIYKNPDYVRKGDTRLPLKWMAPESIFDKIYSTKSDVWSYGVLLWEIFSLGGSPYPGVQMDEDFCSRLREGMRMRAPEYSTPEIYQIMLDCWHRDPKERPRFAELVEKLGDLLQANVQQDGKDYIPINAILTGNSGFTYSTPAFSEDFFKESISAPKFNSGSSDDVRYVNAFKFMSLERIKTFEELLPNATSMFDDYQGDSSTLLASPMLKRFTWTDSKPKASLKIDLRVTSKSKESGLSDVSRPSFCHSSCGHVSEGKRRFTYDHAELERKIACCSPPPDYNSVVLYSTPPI
Chain of Mast/stem cell growth factor receptor Kit (P10721 whole entry): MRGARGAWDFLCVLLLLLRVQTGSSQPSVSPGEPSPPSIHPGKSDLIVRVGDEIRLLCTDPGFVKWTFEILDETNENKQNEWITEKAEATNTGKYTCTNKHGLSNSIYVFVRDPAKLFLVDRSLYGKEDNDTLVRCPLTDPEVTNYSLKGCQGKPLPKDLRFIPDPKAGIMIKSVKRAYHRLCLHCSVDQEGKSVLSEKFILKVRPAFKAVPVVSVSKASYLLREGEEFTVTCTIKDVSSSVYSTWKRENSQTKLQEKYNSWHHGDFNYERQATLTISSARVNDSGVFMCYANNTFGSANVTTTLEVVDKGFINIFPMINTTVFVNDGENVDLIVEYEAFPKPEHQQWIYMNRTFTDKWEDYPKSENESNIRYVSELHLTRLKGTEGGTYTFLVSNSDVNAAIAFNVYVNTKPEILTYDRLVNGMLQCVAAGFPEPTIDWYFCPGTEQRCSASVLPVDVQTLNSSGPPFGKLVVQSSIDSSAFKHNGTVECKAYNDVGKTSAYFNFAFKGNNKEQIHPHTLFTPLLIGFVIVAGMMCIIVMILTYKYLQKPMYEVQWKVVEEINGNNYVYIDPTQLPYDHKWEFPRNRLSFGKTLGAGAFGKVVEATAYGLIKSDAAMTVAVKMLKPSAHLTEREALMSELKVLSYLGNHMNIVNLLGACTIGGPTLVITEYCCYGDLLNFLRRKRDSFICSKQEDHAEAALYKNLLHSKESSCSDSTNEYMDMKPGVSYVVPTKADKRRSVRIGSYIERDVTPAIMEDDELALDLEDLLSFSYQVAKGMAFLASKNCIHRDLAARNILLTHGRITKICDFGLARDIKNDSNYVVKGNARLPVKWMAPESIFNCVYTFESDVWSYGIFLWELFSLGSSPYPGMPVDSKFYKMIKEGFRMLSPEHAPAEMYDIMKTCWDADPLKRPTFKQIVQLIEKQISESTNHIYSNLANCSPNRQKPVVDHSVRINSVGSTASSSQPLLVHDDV
Chain of Vascular endothelial growth factor receptor 2 (P35968 whole entry): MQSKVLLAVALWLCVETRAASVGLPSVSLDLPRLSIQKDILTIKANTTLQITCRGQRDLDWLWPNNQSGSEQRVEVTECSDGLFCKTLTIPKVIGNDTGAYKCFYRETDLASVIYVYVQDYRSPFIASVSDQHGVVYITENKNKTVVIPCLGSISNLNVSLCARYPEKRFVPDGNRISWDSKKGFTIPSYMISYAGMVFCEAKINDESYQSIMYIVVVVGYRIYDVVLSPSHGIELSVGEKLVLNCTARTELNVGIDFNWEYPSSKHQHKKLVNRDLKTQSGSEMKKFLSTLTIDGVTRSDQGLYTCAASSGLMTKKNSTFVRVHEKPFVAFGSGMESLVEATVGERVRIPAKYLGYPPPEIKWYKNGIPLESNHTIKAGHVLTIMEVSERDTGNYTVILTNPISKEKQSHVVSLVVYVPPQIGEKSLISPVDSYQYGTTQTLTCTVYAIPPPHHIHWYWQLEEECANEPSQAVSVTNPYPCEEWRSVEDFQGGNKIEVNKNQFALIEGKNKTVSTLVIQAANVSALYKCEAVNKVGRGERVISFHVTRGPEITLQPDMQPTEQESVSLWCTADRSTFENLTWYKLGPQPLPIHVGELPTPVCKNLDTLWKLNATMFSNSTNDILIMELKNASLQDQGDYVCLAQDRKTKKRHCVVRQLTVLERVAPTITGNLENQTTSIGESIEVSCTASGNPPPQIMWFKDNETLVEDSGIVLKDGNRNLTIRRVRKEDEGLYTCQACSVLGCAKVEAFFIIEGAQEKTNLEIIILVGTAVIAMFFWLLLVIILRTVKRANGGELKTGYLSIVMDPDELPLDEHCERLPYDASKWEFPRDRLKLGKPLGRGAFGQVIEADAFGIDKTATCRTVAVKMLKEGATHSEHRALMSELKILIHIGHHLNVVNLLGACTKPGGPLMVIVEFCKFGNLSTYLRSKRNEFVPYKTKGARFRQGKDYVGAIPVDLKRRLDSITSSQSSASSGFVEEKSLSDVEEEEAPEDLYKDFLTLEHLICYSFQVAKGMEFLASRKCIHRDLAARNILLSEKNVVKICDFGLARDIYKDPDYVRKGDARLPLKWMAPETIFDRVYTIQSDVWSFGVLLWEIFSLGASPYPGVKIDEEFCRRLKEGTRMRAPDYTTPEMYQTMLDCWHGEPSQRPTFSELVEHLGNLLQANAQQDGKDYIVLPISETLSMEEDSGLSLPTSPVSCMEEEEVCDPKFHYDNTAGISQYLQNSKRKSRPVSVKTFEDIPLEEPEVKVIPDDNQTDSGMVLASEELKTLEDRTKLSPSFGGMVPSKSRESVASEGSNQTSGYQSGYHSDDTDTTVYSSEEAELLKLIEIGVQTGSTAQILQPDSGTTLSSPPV

On to `COc1cc2nccc(Oc3ccc(NC(=O)NS(=O)(=O)Cc4ccccc4C)cc3F)c2cc1OC`, for which the IC50 is 3420 nM in the experiment with MKN-45, 6210 nM with HT-29, 3020 nM in the experiment on NCI-H460 and 5670 nM with MDA-MB-231.

Consider `COc1cc2c(Oc3ccc(NC(=O)NS(=O)(=O)Cc4ccc(C)cc4)cc3F)ccnc2cc1OCCCN1CCCCC1`, for which the 50% inhibitory concentration (IC50) with MKN-45 turned out to be 1130 nM; in the experiment on HT-29 it was 2170 nM; in the experiment with NCI-H460, 920 nM; with MDA-MB-231, 2540 nM.

`COc1cc2nccc(Oc3ccc(NC(=O)NS(=O)(=O)Cc4ccccc4F)cc3F)c2cc1OC`: the IC50 in the experiment with MKN-45 turned out to be 2020 nM; in the experiment with HT-29 it was 3120 nM; in the experiment on NCI-H460 it was 1880 nM; in the experiment on MDA-MB-231, 2950 nM.

On to `COc1cc2nccc(Oc3ccc(NC(=O)NS(=O)(=O)Cc4ccc(F)cc4)cc3F)c2cc1OC`, for which the IC50 is 960 nM in the experiment with MKN-45, 2680 nM in the experiment on HT-29, 1040 nM in the experiment with NCI-H460 and 2040 nM in the experiment with MDA-MB-231.

For `COc1cc2c(Oc3ccc(NC(=O)NS(=O)(=O)Cc4ccccc4)cc3F)ccnc2cc1OCCCN1CCOCC1`, the IC50 in the experiment with MKN-45 amounted to 330 nM; in the experiment on HT-29, 1280 nM; in the experiment with NCI-H460 it was 600 nM; in the experiment with MDA-MB-231, 1080 nM.

Turning to `COc1cc2nccc(Oc3ccc(NC(=O)NS(=O)(=O)Cc4ccccc4)cc3F)c2cc1OC`, the half-inhibitory concentration (IC50) in the experiment on MKN-45 stood at 1430 nM; in the experiment with HT-29, 3020 nM; in the experiment on NCI-H460, 1540 nM; with MDA-MB-231 it was 2450 nM.

Take `COc1cc2nccc(Oc3ccc(NC(=O)NS(=O)(=O)Cc4cccc(C)c4)cc3F)c2cc1OC`: the IC50 in the experiment on MKN-45 amounted to 4540 nM; in the experiment with HT-29, 6030 nM; in the experiment on NCI-H460, 3870 nM; with MDA-MB-231, 6560 nM.

For `COc1cc2nccc(Oc3ccc(NC(=O)NS(=O)(=O)Cc4ccc(C(F)(F)F)cc4)cc3F)c2cc1OC`, the IC50 was 10300 nM in the experiment with MKN-45, 8150 nM in the experiment with HT-29, 12200 nM in the experiment on NCI-H460 and 9460 nM in the experiment on MDA-MB-231.

For the molecule `COc1cc2c(Oc3ccc(NC(=O)NS(=O)(=O)Cc4ccc(F)cc4)cc3F)ccnc2cc1OCCCN1CCCC1`, the IC50 was 418 nM in experiment [1]; 380 nM in experiment [2]; > 10000 nM in experiment [3]; 400 nM in experiment [4]; 64 nM in the experiment on MKN-45; 242 nM in experiment [5]. The half-inhibitory concentration (IC50) in [6] came out at 1.98 nM; in experiment [7], 95 nM; in experiment [8], 356 nM; with HT-29, 160 nM; in experiment [9] it was 689 nM; in experiment [10], 375 nM. In addition, the results for the IC50 (with NCI-H460; in experiment [11]; in the experiment on MDA-MB-231) were 55 nM, > 10000 nM and 490 nM, respectively.

Regarding `COc1cc2nccc(Oc3ccc(NC(=O)NS(=O)(=O)Cc4ccccc4)cc3)c2cc1OC`, the IC50 in the experiment on MKN-45 turned out to be 2080 nM; with HT-29, 4350 nM; with NCI-H460, 2600 nM; in the experiment with MDA-MB-231 it was 3840 nM.

In the case of `COc1cc2nccc(Oc3ccc(NC(=O)NS(=O)(=O)Cc4cccc(F)c4)cc3F)c2cc1OC`, the half-inhibitory concentration (IC50) stood at 1630 nM with MKN-45, 3060 nM in the experiment on HT-29, 1790 nM in the experiment with NCI-H460 and 3530 nM in the experiment with MDA-MB-231.

On to `COc1cc2c(Oc3ccc(NC(=O)NS(=O)(=O)Cc4ccc(F)cc4)cc3F)ccnc2cc1OCCCN1CCOCC1`, for which the IC50 worked out at 120 nM in the experiment with MKN-45, 340 nM in the experiment on HT-29, 160 nM in the experiment on NCI-H460 and 780 nM with MDA-MB-231.

With `COc1cc2c(Oc3ccc(NC(=O)C4(C(=O)Nc5ccc(F)cc5)CC4)cc3F)ccnc2cc1OCCCN1CCOCC1` [FORETINIB], the IC50 in [9] was 4.96 nM.

`CCCCOc1cc2nccc(Oc3ccc(NC(=O)NS(=O)(=O)Cc4ccc(F)cc4)cc3F)c2cc1OC`: the IC50 in the experiment with MKN-45 was determined as 1310 nM; with HT-29 it was 2880 nM; in the experiment with NCI-H460, 1440 nM; in the experiment on MDA-MB-231, 2290 nM.

For `CCCCOc1cc2nccc(Oc3ccc(NC(=O)NS(=O)(=O)Cc4ccc(C)cc4)cc3F)c2cc1OC`, the IC50 stood at 6480 nM with MKN-45, 9320 nM with HT-29, 5870 nM in the experiment with NCI-H460 and 8980 nM in the experiment with MDA-MB-231.

For the molecule `COc1cc2nccc(Oc3ccc(NC(=O)NS(=O)(=O)Cc4ccc(C)cc4)cc3F)c2cc1OC`, the IC50 in the experiment with MKN-45 was found to be 5380 nM; with HT-29, 7150 nM; in the experiment on NCI-H460 it was 4770 nM; with MDA-MB-231 it was 7620 nM.

Regarding `COc1cc2nccc(Oc3ccc(NC(=O)NS(=O)(=O)Cc4ccc(Cl)cc4Cl)cc3F)c2cc1OC`, the IC50 was 2240 nM with MKN-45, 2970 nM with HT-29, 3540 nM with NCI-H460 and 4560 nM in the experiment with MDA-MB-231.

Turning to `COc1cc2c(Oc3ccc(NC(=O)NS(=O)(=O)Cc4ccccc4)cc3F)ccnc2cc1OCCCN1CCCC1`, the IC50 came out at 610 nM in the experiment on MKN-45, 930 nM with HT-29, 430 nM in the experiment with NCI-H460 and 1210 nM in the experiment on MDA-MB-231.

Regarding `COc1cc2c(Oc3ccc(NC(=O)NS(=O)(=O)Cc4ccc(F)cc4)cc3F)ccnc2cc1OCCCN1CCCCC1`, the IC50 with MKN-45 was 230 nM; with HT-29, 320 nM; in the experiment with NCI-H460, 150 nM; in the experiment with MDA-MB-231, 600 nM.

For `CCCCOc1cc2nccc(Oc3ccc(NC(=O)NS(=O)(=O)Cc4ccccc4)cc3F)c2cc1OC`, the concentration for half-maximal inhibition (IC50) was determined as 1720 nM in the experiment with MKN-45, 3120 nM in the experiment on HT-29, 1840 nM in the experiment on NCI-H460 and 2400 nM with MDA-MB-231.

In the case of `COc1cc2nccc(Oc3ccc(NC(=O)NS(=O)(=O)Cc4ccc(F)cc4)cc3)c2cc1OC`, the IC50 in the experiment on MKN-45 is 1320 nM; with HT-29 it was 3250 nM; in the experiment with NCI-H460, 1980 nM; in the experiment with MDA-MB-231 it was 2640 nM.

Consider `COc1cc2c(Oc3ccc(NC(=O)NS(=O)(=O)Cc4ccccc4)cc3F)ccnc2cc1OCCCN1CCCCC1`, for which the IC50 in the experiment with MKN-45 is 650 nM; in the experiment on HT-29, 1230 nM; in the experiment on NCI-H460, 740 nM; with MDA-MB-231, 1940 nM.

`COc1cc2c(Oc3ccc(NC(=O)NS(=O)(=O)Cc4ccc(C)cc4)cc3F)ccnc2cc1OCCCN1CCOCC1`: the IC50 in the experiment on MKN-45 amounted to 1670 nM; in the experiment with HT-29, 3760 nM; in the experiment with NCI-H460 it was 1540 nM; in the experiment with MDA-MB-231, 3860 nM.

Consider `COc1cc2nccc(Oc3ccc(NC(=O)NS(=O)(=O)Cc4ccc(Cl)cc4)cc3F)c2cc1OC`, for which the IC50 in the experiment on MKN-45 turned out to be 1420 nM; with HT-29 it was 2880 nM; in the experiment on NCI-H460 it was 1450 nM; in the experiment on MDA-MB-231 it was 3160 nM.

On to `COc1cc2nccc(Oc3ccc(NC(=O)NS(=O)(=O)Cc4ccc(Br)cc4)cc3F)c2cc1OC`, for which the IC50 with MKN-45 worked out at 1420 nM; in the experiment on HT-29, 3120 nM; in the experiment on NCI-H460, 1650 nM; in the experiment on MDA-MB-231 it was 2260 nM.
